Measured values published in patent US11046680B1, “Heteroaryl-substituted triazoles as APJ receptor agonists” (priority 2016, dated 2021).

What follows are molecules tested against human APJ receptor (Homo sapiens (Human), UniProt P35414) (assay: biochemical). Settings: [35S]GTPγS binding, CHO membranes expressing human APJ receptor; read-out: Activity hAPJ SPA EC50 IP.
human APJ receptor, sequence (P35414 whole entry): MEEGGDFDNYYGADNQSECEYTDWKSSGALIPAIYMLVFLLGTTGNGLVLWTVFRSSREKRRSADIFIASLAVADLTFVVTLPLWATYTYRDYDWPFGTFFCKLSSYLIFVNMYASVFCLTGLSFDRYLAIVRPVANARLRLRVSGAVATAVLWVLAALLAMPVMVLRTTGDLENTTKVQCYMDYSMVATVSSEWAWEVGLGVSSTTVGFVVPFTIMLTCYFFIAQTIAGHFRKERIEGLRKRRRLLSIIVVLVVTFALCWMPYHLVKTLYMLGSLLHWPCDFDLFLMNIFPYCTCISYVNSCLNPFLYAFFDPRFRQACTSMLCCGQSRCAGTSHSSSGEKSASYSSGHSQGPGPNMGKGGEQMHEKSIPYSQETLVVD
Assay type: biochemical
How it was run: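 Membranes of a stable CHO line carrying human APJ (pFLAG-CMV-3) were used in a GTPγS binding format; buffer GDP, MgCl2 and NaCl were optimized, and plates were read after 90 min at RT.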
`COc1ccccc1-n1c(NS(=O)(=O)CCC(F)(F)F)nnc1-c1cccs1` [Example 386.0, 3,3,3-Trifluoro-N-(4-(2-methoxyphenyl)-5-(2-thiophenyl)-4H-1,2,4-triazol-3-yl)-1-propanesulfonamide] was tested, and the EC50 was > 12500 nM. With `COc1cccc(OC)c1-n1c(NS(=O)(=O)[C@@H](C)[C@@H](OC(C)C)c2ncc(C)cn2)nnc1-c1ccn(C)n1` [Example 355.0, (1S,2S)-N-(4-(2,6-dimethoxyphenyl)-5-(1-methyl-1H-pyrazol-3-yl)-4H-1,2,4-triazol-3-yl)-1-isopropoxy-1-(5-methylpyrimidin-2-yl)propane-2-sulfonamide] the EC50 was 0.47 nM. `COc1ncnc(OC)c1-n1c(NS(=O)(=O)[C@@H](C)[C@H](OC)c2ncc(C)cn2)nnc1-c1nc(C2CC2)cs1` [Example 4.0, (1R,2S)-N-(5-(4-cyclopropylthiazol-2-yl)-4-(4,6-dimethoxypyrimidin-5-yl)-4H-1,2,4-triazol-3-yl)-1-methoxy-1-(5-methylpyrimidin-2-yl)propane-2-sulfonamide] gave an EC50 of 0.92 nM. `COc1cccc(OC)c1-n1c(NS(=O)(=O)[C@@H](C)[C@H](OC)c2ncc(Cl)cn2)nnc1-c1ncnc2cc[nH]c12` [Example 434.0, (1R,2S)-1-(5-chloropyrimidin-2-yl)-N-(4-(2,6-dimethoxyphenyl)-5-(5H-pyrrolo[3,2-d]pyrimidin-4-yl)-4H-1,2,4-triazol-3-yl)-1-methoxypropane-2-sulfonamide] was tested, and the EC50 was 8.6 nM. `COc1cccc(OC)c1-n1c(NS(=O)(=O)CCC(=O)N2CCCC2)nnc1-c1cccs1` [Example 361.0, N-(4-(2,6-Dimethoxyphenyl)-5-(thiophen-2-yl)-4H-1,2,4-triazol-3-yl)-3-oxo-3-(pyrrolidin-1-yl)propane-1-sulfonamide] showed an EC50 of 34 nM. In the case of `CCS(=O)(=O)Nc1nnc(-c2ccn(C)n2)n1-c1c(OC)cccc1OC` [Example 267.0, N-(4-(2,6-dimethoxyphenyl)-5-(1-methyl-1H-pyrazol-3-yl)-4H-1,2,4-triazol-3-yl)ethanesulfonamide], the EC50 is reported as 82 nM. Molecule `COc1cccc(OC)c1-n1c(NS(=O)(=O)[C@H](C)Cc2ncc(F)cn2)nnc1-c1nc(C(C)C)cs1` [Example 156.0] has an EC50 of 0.32 nM. In the case of `COc1cccc(OC)c1-n1c(NS(=O)(=O)CCc2ccc(F)cc2C#N)nnc1-c1nc(C(C)C)cs1` [Example 151.0, 2-(2-cyano-4-fluorophenyl)-N-(4-(2,6-dimethoxyphenyl)-5-(4-isopropylthiazol-2-yl)-4H-1,2,4-triazol-3-yl)ethanesulfonamide], the EC50 is reported as 31 nM. In the case of `COc1cccc(OC)c1-n1c(NS(=O)(=O)C[C@H](O)c2ccc(Cl)cc2)nnc1-c1ccn(C)n1` (single isomer, unassigned) [Example 375.0, (R)-2-(4-Chlorophenyl)-N-(4-(2,6-dimethoxyphenyl)-5-(1-methyl-1H-pyrazol-3-yl)-4H-1,2,4-triazol-3-yl)-2-hydroxyethanesulfonamide or (R)-2-(4-chlorophenyl)-N-(4-(2,6-dimethoxyphenyl)-5-(1-methyl-1H-pyrazol-3-yl)-4H-1,2,4-triazol-3-yl)-2-hydroxyethanesulfonamide], the EC50 is reported as 5.9 nM. `CCc1csc(-c2nnc(NS(=O)(=O)[C@H](C)Cc3ncc(F)cn3)n2-c2c(OC)cccc2OC)n1` (single isomer, unassigned) [Example 104.0, (R)-N-(4-(2,6-dimethoxyphenyl)-5-(4-ethylthiazol-2-yl)-4H-1,2,4-triazol-3-yl)-1-(5-fluoropyrimidin-2-yl)propane-2-sulfonamide or (S)-N-(4-(2,6-dimethoxyphenyl)-5-(4-ethylthiazol-2-yl)-4H-1,2,4-triazol-3-yl)-1-(5-fluoropyrimidin-2-yl)propane-2-sulfonamide] showed an EC50 of 4.6 nM. In the case of `C=CCO[C@@H](c1ncc(F)cn1)[C@@H](C)S(=O)(=O)Nc1nnc(-c2nc(C)cs2)n1-c1c(OC)cccc1OC` (single isomer, unassigned) [Example 168.0, (1S,2R)-1-(Allyloxy)-N-(4-(2,6-dimethoxyphenyl)-5-(4-methylthiazol-2-yl)-4H-1,2,4-triazol-3-yl)-1-(5-fluoropyrimidin-2-yl)propane-2-sulfonamide or (1R,2S)-1-(allyloxy)-N-(4-(2,6-dimethoxyphenyl)-5-(4-methylthiazol-2-yl)-4H-1,2,4-triazol-3-yl)-1-(5-fluoropyrimidin-2-yl)propane-2-sulfonamide], the EC50 is reported as 30 nM. In the case of `COc1cccc(OC)c1-n1c(NS(=O)(=O)[C@@H](C)Cc2ncc(F)cn2)nnc1-c1cccnn1` (single isomer, unassigned) [Example 33.0, (2S)-N-(4-(2,6-dimethoxyphenyl)-5-(3-pyridazinyl)-4H-1,2,4-triazol-3-yl)-1-(5-fluoro-2-pyrimidinyl)-2-propanesulfonamide or (2R)-N-(4-(2,6-dimethoxyphenyl)-5-(3-pyridazinyl)-4H-1,2,4-triazol-3-yl)-1-(5-fluoro-2-pyrimidinyl)-2-propanesulfonamide], the EC50 is reported as 190 nM. `COc1ccc(Cl)cc1-n1c(NS(=O)(=O)CCc2ccc(F)cc2)nnc1-c1cccs1` [Example 360.0, N-(4-(5-Chloro-2-methoxyphenyl)-5-(thiophen-2-yl)-4H-1,2,4-triazol-3-yl)-2-(4-fluorophenyl)ethanesulfonamide] gave an EC50 of 194 nM. `COc1cccc(OC)c1-n1c(NS(=O)(=O)[C@@H](C)[C@H](OC)c2ccc(C#N)cc2C#N)nnc1-c1ccn(C)n1` (mixture of isomers) [Example 264.0, (1S,2R)-1-(2,4-dicyanophenyl)-N-(4-(2,6-dimethoxyphenyl)-5-(1-methyl-1H-pyrazol-3-yl)-4H-1,2,4-triazol-3-yl)-1-methoxy-2-propanesulfonamide and (1R,2S)-1-(2,4-dicyanophenyl)-N-(4-(2,6-dimethoxyphenyl)-5-(1-methyl-1H-pyrazol-3-yl)-4H-1,2,4-triazol-3-yl)-1-methoxy-2-propanesulfonamide] was tested, and the EC50 was 0.8 nM. With `COc1cccc(OC)c1-n1c(NS(=O)(=O)[C@@H](C)[C@H](C)c2ncc(F)cn2)nnc1-c1cnn(C)c1` [Example 212.0, (2S,3R)-N-(4-(2,6-dimethoxyphenyl)-5-(1-methyl-1H-pyrazol-4-yl)-4H-1,2,4-triazol-3-yl)-3-(5-fluoro-2-pyrimidinyl)-2-butanesulfonamide] the EC50 was 0.42 nM. For `COc1cccc(OC)c1-n1c(NS(=O)(=O)[C@@H](C)[C@H](OC)c2ncc(C)cn2)nnc1-c1ccon1` [Example 90.0, (1R,2S)-N-(4-(2,6-dimethoxyphenyl)-5-(isoxazol-3-yl)-4H-1,2,4-triazol-3-yl)-1-methoxy-1-(5-methylpyrimidin-2-yl)propane-2-sulfonamide], the EC50 was 33 nM. For `COc1cccc(OC)c1-n1c(NS(=O)(=O)[C@@H](C)[C@H](C)c2ncc(F)cn2)nnc1-c1cncc(C)n1` [Example 209.0, (2S,3R)-N-(4-(2,6-dimethoxyphenyl)-5-(6-methyl-2-pyrazinyl)-4H-1,2,4-triazol-3-yl)-3-(5-fluoro-2-pyrimidinyl)-2-butanesulfonamide], the EC50 was 1.5 nM. In the case of `COc1cnc([C@@H](OC)[C@H](C)S(=O)(=O)Nc2nnc(-c3ccn(C)n3)n2-c2c(OC)cccc2OC)cn1` (single isomer, unassigned) [Example 309.0, (1R,2S)-N-(4-(2,6-dimethoxyphenyl)-5-(1-methyl-1H-pyrazol-3-yl)-4H-1,2,4-triazol-3-yl)-1-methoxy-1-(5-methoxy-2-pyrazinyl)-2-propanesulfonamide or (1S,2R)-N-(4-(2,6-dimethoxyphenyl)-5-(1-methyl-1H-pyrazol-3-yl)-4H-1,2,4-triazol-3-yl)-1-methoxy-1-(5-methoxy-2-pyrazinyl)-2-propanesulfonamide], the EC50 is reported as 34 nM. For `CCO[C@H](c1ncc(F)cn1)[C@H](C)S(=O)(=O)Nc1nnc(-c2ccn(C)n2)n1-c1c(OC)cccc1OC` [Example 135.0, (1R,2S)-N-(4-(2,6-Dimethoxyphenyl)-5-(1-methyl-1H-pyrazol-3-yl)-4H-1,2,4-triazol-3-yl)-1-ethoxy-1-(5-fluoro-2-pyrimidinyl)-2-propanesulfonamide], the EC50 was 0.88 nM. In the case of `COc1cccc(OC)c1-n1c(NS(=O)(=O)[C@@H](C)[C@H](OC)c2ncc(Cl)cn2)nnc1-c1c[nH]cn1` [Example 523.0, (1R,2S)-1-(5-chloropyrimidin-2-yl)-N-(4-(2,6-dimethoxyphenyl)-5-(1H-imidazol-4-yl)-4H-1,2,4-triazol-3-yl)-1-methoxypropane-2-sulfonamide], the EC50 is reported as 3.2 nM. For `COc1ncnc(OC)c1-n1c(NS(=O)(=O)[C@@H](C)[C@H](C)c2ccc(Cl)cn2)nnc1-c1cnn(C)c1` [Example 535.0, (2S,3R)-3-(5-chloro-2-pyridinyl)-N-(4-(4,6-dimethoxy-5-pyrimidinyl)-5-(1-methyl-1H-pyrazol-4-yl)-4H-1,2,4-triazol-3-yl)-2-butanesulfonamide], the EC50 was 0.66 nM. `COCC1(n2c(NS(=O)(=O)[C@@H](C)[C@H](C)c3cnc(OC)cn3)nnc2-c2ccn(C)n2)CC1` [Example 454.0, (2S,3R)-N-(4-(1-(methoxymethyl)cyclopropyl)-5-(1-methyl-1H-pyrazol-3-yl)-4H-1,2,4-triazol-3-yl)-3-(5-methoxy-2-pyrazinyl)-2-butanesulfonamide] showed an EC50 of 56 nM. `COc1cccc(OC)c1-n1c(NS(=O)(=O)[C@@H](C)[C@H](OC)c2ncc(C)cn2)nnc1-c1cnn2ccccc12` [Example 415.0, (1R,2S)-N-(4-(2,6-dimethoxyphenyl)-5-(pyrazolo[1,5-a]pyridin-3-yl)-4H-1,2,4-triazo1-3-yl)-1-methoxy-1-(5-methylpyrimidin-2-yl)propane-2-sulfonamide] was tested, and the EC50 was 5.2 nM. `COc1ccc(N2CCC2=O)cc1-n1c(NS(=O)(=O)CCc2ccc(F)cc2Br)nnc1-c1cccs1` [Example 131.0, 2-(2-Bromo-4-fluorophenyl)-N-(4-(2-methoxy-5-(2-oxoazetidin-1-yl)phenyl)-5-(thiophen-2-yl)-4H-1,2,4-triazol-3-yl)ethanesulfonamide] showed an EC50 of 4.1 nM. `COc1cccc(OC)c1-n1c(NS(=O)(=O)CCc2ncc(C)cn2)nnc1-c1nc(C)cs1` [Example 10.0, N-(4-(2,6-dimethoxyphenyl)-5-(4-methyl-1,3-thiazol-2-yl)-4H-1,2,4-triazol-3-yl)-2-(5-methyl-2-pyrimidinyl)ethanesulfonamide] was tested, and the EC50 was 8.4 nM.
